Results on three compounds are retold here after publication PMC10208570, “Peptidomimetic antibiotics disrupt the lipopolysaccharide transport bridge of drug-resistant Enterobacteriaceae” (Science Advances, 2023).

The term IC50 denotes the point on the concentration scale where inhibition reaches its midpoint. Higher therefore signals weaker potency in that assay. As a reminder, the Ki is a dissociation constant, usually derived from enzyme kinetics or from competition with a known ligand. Lower therefore signals a stronger hold on the target.

Data set [1] relates to K. pneumoniae 968733 (CST-R). Nature of the data set: MIC assay (CLSI). In kind it is cell-based, Klebsiella pneumoniae. The protocol:
(§1) MIC assays [Clinical and Laboratory Standards Institute (CLSI) methodology] and serial passage studies were performed as described by Luther et al. ([6]). […] Resistant mutants were isolated, and their MIC values were determined and sent to Microbes NG (Birmingham, United Kingdom) for whole-genome sequencing and bioinformatic analysis.

Data set [2] has as its system K. pneumoniae ATCC 43816 LptA Q62L mutant. Nature of the data set: microbe, parasite or virus in culture. The protocol:
as §1

Data set [3] deals with K. pneumoniae ATCC 43816 (parent / WT). In words: microbe, parasite or virus in culture. The conditions noted are these: for MIC K. pneumoniae ATCC 43816 Parent: CLSI method, parent strain. The protocol: as §1
The test system of data set [4] is E. coli ATCC 25922 LptA Q62L mutant. Nature of the data set: microbe, parasite or virus in culture. The conditions noted are these: for MIC E. coli ATCC 25922 Q62L mutant: CLSI method, clone harboring LptA Q62L. The protocol:
as §1

Data set [5] has as its system E. coli ATCC 25922 (parent / WT). Nature of the data set: microbe, parasite or virus in culture. The conditions noted are these: for MIC E. coli ATCC 25922 Parent: CLSI method, parent strain. The protocol:
as §1

Data set [6] deals with T1, LptAmQ62L (Escherichia coli, UniProt P0ADV1, Q62L).
T1 construct: His6-GB1 (N, cleaved yes); made in house; host or cells: E. coli BL21 (DE3)
T1 sequence (P0ADV1 28-159 Q62L): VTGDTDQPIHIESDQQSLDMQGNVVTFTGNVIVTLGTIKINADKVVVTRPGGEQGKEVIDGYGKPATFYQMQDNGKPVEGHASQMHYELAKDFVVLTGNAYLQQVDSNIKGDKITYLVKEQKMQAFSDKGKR
Nature of the data set: biochemical. In kind it is binding, E. coli. The protocol:
(§2) Protein stocks were purified and concentrated in buffer 1 [50 mM Na-Pi (pH 7) and 150 mM NaCl] and, if necessary, diluted to desired concentrations using buffer 2 [50 mM Na-Pi (pH 7), 150 mM NaCl, and 0.05% Tween 20]. Peptide stocks and fluorescently labeled peptide stocks were made in buffer 2. Every serial dilution consisted of 24 wells, the first well with the highest concentrate and the last well (well 24) with the lowest. First, 50 μl of buffer 2 was added to the wells 2 to 24 of each serial dilution. Then, 100 μl of concentrated unlabeled peptide/protein in their respective buffers was added to the first well. Fifty microliters were taken from the first well and added to the second well for a 1:1 serial dilution and continued for the 24 wells. […] Plates were covered with adhesive seals and left to incubate overnight at 4°C before FP measurements the next day. Anisotropy was measured using the Tecan Safire2 plate reader using a 10-nm bandwidth and setting the excitation and emission wavelengths to 635 and 670 nm, respectively. The G-factor (G) was also determined empirically as 1.094 for the instrument and included in all the anisotropy calculations.
(§3) For the indirect binding assays, r was calculated in the same manner as the direct binding assays. […] The control was subtracted from r to yield r′. Data were fit to a sigmoidal interpolation model on GraphPad Prism 9, and an IC50 was generated for each unlabeled peptide or protein measured.

For data set [7], the target named is T2, LptAm (Escherichia coli, UniProt P0ADV1).
T2 construct: His6-GB1 (N, cleaved yes); made in house; host or cells: E. coli BL21 (DE3)
T2 sequence (P0ADV1 28-159): as the sequence (P0ADV1 28-159 Q62L) above, with L35Q counted along it
Nature of the data set: biochemical. In kind it is binding, E. coli. The protocol:
as §2, §3

Data set [8] relates to human red blood cells. Nature of the data set: Haemolysis. In kind it is cell-based. The conditions noted are these: PBS-washed human red blood cells; 1 h at 200 mg/liter, 37°C; OD 540 nm; versus 100% lysis control 2.5% Triton X-100; biological replicates. The protocol: To test their hemolytic potential, compounds were incubated in the presence of phosphate-buffered saline (PBS)–washed human red blood cells. After 1-hour incubation at 200 mg/liter and 37°C, the samples were centrifuged (3220g), the supernatants were diluted in Dulbecco’s PBS, and optical density at 540 nm was determined. The hemolysis induced by the compound was calculated versus a 100% lysis control prepared with 2.5% Triton X-100 (table S4A).

Data set [9] concerns K. pneumoniae NCTC 13443 (NDM-1) LptA Q62L mutant. Nature of the data set: microbe, parasite or virus in culture. The protocol: as §1
The test system of data set [10] is K. pneumoniae NCTC 13443 (NDM-1) (parent / WT). Nature of the data set: microbe, parasite or virus in culture. The protocol:
as §1

The nature of data set [11]: in vitro. In kind it is cell-based. As to conditions: human. The protocol:
The cytotoxicity of compounds was determined by determining the number of viable cells using the Sigma Cell Counting Kit-8 (WST-8). HeLa cells were incubated at 37°C and 5% CO2 for 24 hours, after which the medium was replaced with fresh medium containing dilutions of compounds. […]

Where [12] appears, read: CLSI method, clone harboring LptA Q62L.

Each structure is given as a SMILES string. ≈ marks a conversion by molar mass, not a printed value. Where a SMILES comes first, the peptide text is derived from it. Bridges are numbered along the chain shown (N, C = ends). [ ]: non-standard residue; d: D form. dHyp = O=C(O)[C@H]1C[C@H](O)CN1; dPen = CC(C)(S)[C@@H](N)C(=O)O; Pen = CC(C)(S)[C@H](N)C(=O)O; dDab = NCC[C@@H](N)C(=O)O; Dab = NCC[C@H](N)C(=O)O

Turning to `CC[C@@H](C)[C@@H](NC(=O)[C@H]1C[C@H](O)CN1C(=O)[C@H](N)C(C)C)C(=O)N[C@@H](C(=O)N[C@H](Cc1ccc(O)cc1)C(=O)N[C@H]1C(=O)N[C@H](CC(N)=O)C(=O)N[C@H](CCCNC(=N)N)C(=O)N[C@H](CCN)C(=O)N[C@H]([C@H](C)O)C(=O)N[C@@H](CCN)C(=O)N[C@H](CCCCN)C(=O)N[C@@H](C(=O)N[C@H](CCN)C(=O)N[C@H](CCCNC(=N)N)C(=O)N[C@H](Cc2ccc(O)cc2)C(=O)O)CSSC1(C)C)[C@H](C)O` [6-enant.] (H-[dV][dHyp][dI][dT][dY][dPen][dN][dR][dDab][dT][Dab][dK][dC][dDab][dR][dY]-OH; disulfide 6-13), the “MIC K. pneumoniae 968733 (CST-R) Parent” value in data set [1] (CLSI method, colistin-resistant strain) is reported as above 8 micrograms per milliliter. In addition, in [2] (setting [12]), the “MIC K. pneumoniae ATCC 43816 Q62L mutant” value was above 8 micrograms per milliliter. For the same compound, the “MIC K. pneumoniae ATCC 43816 Parent” value in data set [3] is above 8 micrograms per milliliter. Also, in [4], the “MIC E. coli ATCC 25922 Q62L mutant” value is above 8 micrograms per milliliter. The “MIC E. coli ATCC 25922 Parent” value in data set [5] is recorded as above 8 micrograms per milliliter.
For `CC[C@H](C)[C@H](NC(=O)[C@@H](NC(=O)[C@@H]1CCCN1C(=O)[C@@H](NC(=O)[C@@H]1CCCN1C(=O)[C@H](CCCCN)NC(=O)[C@@H](N)CCCCN)C(C)C)[C@@H](C)CC)C(=O)N[C@@H](Cc1ccc(O)cc1)C(=O)N[C@@H]1C(=O)N[C@@H](CC(N)=O)C(=O)N[C@@H](CCCNC(=N)N)C(=O)N[C@@H](CCN)C(=O)N[C@@H]([C@@H](C)O)C(=O)N[C@H](CCN)C(=O)N[C@@H](CCCCN)C(=O)N[C@H](C(=O)N[C@@H](CCN)C(=O)N[C@@H](CCCNC(=N)N)C(=O)N[C@@H](Cc2ccc(O)cc2)C(=O)O)CSSC1(C)C` [Compound 2] (H-KKPVPIIY[Pen]NR[Dab]T[dDab]KC[Dab]RY-OH; disulfide 9-16), in data set [6], the midpoint of inhibition, the IC50, lay at 19.3 ± 6.3 nM and the Ki was found to be 13.1 ± 4.2 nM. Moreover, in [7], 12.6 ± 0.7 nM corresponded to half-maximal inhibition (IC50) and the affinity corresponds to a Ki of 2.1 ± 0.1 nM. Besides, in [8], the “Haemolysis % at 0.2 g/L” value is recorded as 0%. Moreover, the “MIC K. pneumoniae NCTC 13443 (NDM-1) Q62L mutant” value in data set [9] (setting [12]) is listed as above 8 micrograms per milliliter. Also, in data set [3], the “MIC K. pneumoniae ATCC 43816 Parent” value is on record as 0.125 micrograms per milliliter. In data set [4], the “MIC E. coli ATCC 25922 Q62L mutant” value is 2 micrograms per milliliter. Also, the “MIC E. coli ATCC 25922 Parent” value in data set [5] is 0.031 micrograms per milliliter. For the same compound, the “MIC K. pneumoniae NCTC 13443 (NDM-1) Parent” value in data set [10] (CLSI method, parent strain) is recorded as 0.5 micrograms per milliliter. Moreover, in data set [11], 60 µM corresponded to half-maximal inhibition (IC50 at 48 h).
`CNC(C)C1CCC(N)C(OC2C(N)CC(N)C(OC3OCC(C)(O)C(NC)C3O)C2O)O1` (centres unmarked) [Gentamicin, reference compound]: the MIC was 0.5 µg/mL (≈ 1.05 µM) in data set [1] (Klebsiella pneumoniae, read-out: MIC K. pneumoniae 968733 (CST-R) Parent); 0.5 µg/mL (≈ 1.05 µM) in [2] (Klebsiella pneumoniae, ATCC43816, read-out: MIC K. pneumoniae ATCC 43816 Q62L mutant); above 8 µg/mL in [9] (Klebsiella pneumoniae, NCTC13443, read-out: MIC K. pneumoniae NCTC 13443 (NDM-1) Q62L mutant); 0.5 µg/mL (≈ 1.05 µM) in data set [3] (Klebsiella pneumoniae, ATCC43816, read-out: MIC K. pneumoniae ATCC 43816 Parent); 1 µg/mL (≈ 2.09 µM) in data set [4] (Escherichia coli, ATCC25922, read-out: MIC E. coli ATCC 25922 Q62L mutant); 0.5 µg/mL (≈ 1.05 µM) in data set [5] (Escherichia coli, ATCC25922, read-out: MIC E. coli ATCC 25922 Parent). For the same compound, the MIC in [10] (Klebsiella pneumoniae, NCTC13443, read-out: MIC K. pneumoniae NCTC 13443 (NDM-1) Parent) is above 8 µg/mL.
